Assay results published in ChEMBL document CHEMBL1201862, “PubChem BioAssay data set” (2004).
Calls of active or inactive are those of the source.

What was measured:
[1] = biological target: Ras and Rab interactor 1/Tyrosine-protein kinase ABL1 (Homo sapiens, UniProt P00519+Q13671); type: functional;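 note: biochemical TR-FRET dose-response test measuring inhibition of binding between Rin1 and Abl proteins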
[2] = biological target: T1, Interleukin-8 (Homo sapiens, UniProt P10145); assay: Dose Response confirmation of uHTS small molecule hits for cystic fibrosis induced NFkb Inhibitors in a PAF-induced IL8 counterscreen.; type: functional; details: read-out: IC50_Mean
T1 sequence (P10145 whole entry): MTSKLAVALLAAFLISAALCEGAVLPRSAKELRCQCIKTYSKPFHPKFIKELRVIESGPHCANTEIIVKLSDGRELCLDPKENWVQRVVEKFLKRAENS

[3] = biological target: T1, Interleukin-8; assay: Dose Response confirmation of uHTS small molecule hits for cystic fibrosis induced NFkb Inhibitors in a TNFa-induced IL8 counterscreen.; type: functional; details: read-out: IC50_Mean
[4] = HepG2 cell cytotoxicity, dose response, cytotoxicity control for Shn3 inhibitor project, CellTiter-Glo, cherry-picked (AID 624134); type: functional, cell-based
[5] = test system: CHO; assay: cytotoxicity in TLR9-MyD88 CHO cells, dose response, cytotoxicity control for TLR9-MyD88 binding inhibitor project, cell-based, luminescence (AID 588339); type: functional, hamster; details: Cricetulus griseus;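 note: CHO cells stably coexpressing TLR9 and MyD88 fusions from primary screen; compound exposure lasted 48 hours before viability readout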
[6] = test system: INS1; assay: beta cell apoptosis inhibitors, cytokine rescue, dose response, luminescence, retest (AID 449756); type: functional, cell-based; details: Rattus norvegicus;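 note: cell death triggered by IL-1 beta plus TNF-alpha plus IFN-gamma mixture; protective hits raise ATP signal compared with cytokine alone wells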
[7] = Shn3 3'UTR reporter inhibitors, dose response, cell-based, Clone20 osteoblasts, firefly luciferase, cherry-picked (AID 624132); type: functional;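 note: firefly luciferase luminescence from reporter carrying the Shn3 3'UTR in osteoblasts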
[8] = test system: Streptococcus sp. 'group A'; assay: growth inhibition of control SK(-) GAS strain, dose response, counter-screen for streptokinase expression inhibitor project, luminescence, kanamycin, BacTiterGlo, confirmation (AID 1900); type: functional, organism-based
[9] = biological target: T2, Replicative DNA helicase DnaB (Mycobacterium tuberculosis, UniProt P9WMR3); assay: DnaB intein splicing inhibitors, dose response, biochemical, cell-free fluorescence (AID 449749); type: functional
T2 sequence (P9WMR3 whole entry): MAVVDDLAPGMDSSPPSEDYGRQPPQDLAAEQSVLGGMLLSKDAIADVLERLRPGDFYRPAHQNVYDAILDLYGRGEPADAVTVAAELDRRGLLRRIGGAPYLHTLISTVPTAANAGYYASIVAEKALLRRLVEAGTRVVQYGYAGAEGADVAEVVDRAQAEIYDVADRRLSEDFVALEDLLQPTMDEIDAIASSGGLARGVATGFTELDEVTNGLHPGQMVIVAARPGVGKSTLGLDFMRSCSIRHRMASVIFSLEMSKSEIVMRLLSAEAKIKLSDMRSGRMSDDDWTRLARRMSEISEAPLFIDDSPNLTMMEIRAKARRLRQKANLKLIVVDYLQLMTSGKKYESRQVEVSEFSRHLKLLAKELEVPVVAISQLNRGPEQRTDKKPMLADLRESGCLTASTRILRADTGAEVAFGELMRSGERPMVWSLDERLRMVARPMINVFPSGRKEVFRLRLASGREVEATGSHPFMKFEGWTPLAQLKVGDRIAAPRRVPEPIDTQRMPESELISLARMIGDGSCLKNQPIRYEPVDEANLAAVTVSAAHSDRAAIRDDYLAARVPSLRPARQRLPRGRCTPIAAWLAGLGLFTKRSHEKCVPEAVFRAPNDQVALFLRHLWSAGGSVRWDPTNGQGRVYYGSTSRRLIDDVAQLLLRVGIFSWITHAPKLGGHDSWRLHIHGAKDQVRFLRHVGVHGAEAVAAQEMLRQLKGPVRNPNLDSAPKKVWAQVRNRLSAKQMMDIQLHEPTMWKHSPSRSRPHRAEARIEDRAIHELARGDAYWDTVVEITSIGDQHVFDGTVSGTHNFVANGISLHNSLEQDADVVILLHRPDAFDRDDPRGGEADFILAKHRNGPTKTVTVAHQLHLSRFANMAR

[10] = biological target: Beta Lactamase (Pseudomonas aeruginosa, UniProt Q932Y6); assay: beta-lactamase reporter inhibitor potency, dose response, artefact control for TLR9-MyD88 binding inhibitor project, BLA reporter cells, FRET fluorescence (AID 588341); type: cell-based;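 note: cell based assay in CHO-K1 cells stably expressing beta-lactamase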
[11] = biological target: Heat shock protein HSP 90-alpha (Homo sapiens, UniProt P07900); type: functional, organism-based
[12] = biological target: T3, Streptokinase A (Streptococcus pyogenes serotype M1, UniProt P10520); assay: S. pyogenes streptokinase expression inhibitors, potency, dose response, plasminogen activation absorbance, OD405 (AID 1914); type: functional, Streptococcus pyogenes M1 GAS;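 note: secreted streptokinase activity via plasminogen activation per viability signal from cell pellet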
T3 sequence (P10520 whole entry): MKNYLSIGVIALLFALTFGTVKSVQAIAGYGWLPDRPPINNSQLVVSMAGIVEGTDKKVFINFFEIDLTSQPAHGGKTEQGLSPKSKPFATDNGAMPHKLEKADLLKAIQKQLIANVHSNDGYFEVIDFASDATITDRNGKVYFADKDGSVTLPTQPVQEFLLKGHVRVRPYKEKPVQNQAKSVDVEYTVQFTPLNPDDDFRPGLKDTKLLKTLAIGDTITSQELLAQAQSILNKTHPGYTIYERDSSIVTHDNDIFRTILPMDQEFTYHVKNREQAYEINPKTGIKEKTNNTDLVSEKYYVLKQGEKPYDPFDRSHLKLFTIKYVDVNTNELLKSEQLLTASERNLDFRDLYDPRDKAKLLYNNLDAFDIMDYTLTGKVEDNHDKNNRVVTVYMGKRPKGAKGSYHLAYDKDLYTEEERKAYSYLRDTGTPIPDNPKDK

[13] = control 3'UTR Renilla luciferase suppression, dose response, counter-screen for Shn3 inhibitor project, cell-based, Clone20-Shn3RL, cherry-picked (AID 624133); type: functional
[14] = biological target: ATP-binding cassette sub-family B member 6 (Homo sapiens, UniProt Q9NP58); assay: ABCB6 transporter inhibitors, dose response, K562-ABCB6 cells, flow cytometry, cherry pick 1 (AID 623955); type: functional; details: read-out: EC50_MICROM
[15] = test system: Streptococcus; assay: Group A Streptococcus viability loss, dose response, counter-screen for streptokinase expression inhibitor project, luminescence, BacTiterGlo (AID 1915); type: functional, organism-based;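 note: potency for reduction of bacterial viability or growth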
[16] = biological target: T4, Protein RecA (Mycobacterium tuberculosis, UniProt P9WHJ3); assay: Fluorescence Cell-Free Homogeneous Dose Retest to Identify Inhibitors of RecA-Intein Splicing Activity. [Related pubchem assays (depositor defined):AID2097, AID2223, AID489010, AID492950]; type: functional
T4 sequence (P9WHJ3 whole entry): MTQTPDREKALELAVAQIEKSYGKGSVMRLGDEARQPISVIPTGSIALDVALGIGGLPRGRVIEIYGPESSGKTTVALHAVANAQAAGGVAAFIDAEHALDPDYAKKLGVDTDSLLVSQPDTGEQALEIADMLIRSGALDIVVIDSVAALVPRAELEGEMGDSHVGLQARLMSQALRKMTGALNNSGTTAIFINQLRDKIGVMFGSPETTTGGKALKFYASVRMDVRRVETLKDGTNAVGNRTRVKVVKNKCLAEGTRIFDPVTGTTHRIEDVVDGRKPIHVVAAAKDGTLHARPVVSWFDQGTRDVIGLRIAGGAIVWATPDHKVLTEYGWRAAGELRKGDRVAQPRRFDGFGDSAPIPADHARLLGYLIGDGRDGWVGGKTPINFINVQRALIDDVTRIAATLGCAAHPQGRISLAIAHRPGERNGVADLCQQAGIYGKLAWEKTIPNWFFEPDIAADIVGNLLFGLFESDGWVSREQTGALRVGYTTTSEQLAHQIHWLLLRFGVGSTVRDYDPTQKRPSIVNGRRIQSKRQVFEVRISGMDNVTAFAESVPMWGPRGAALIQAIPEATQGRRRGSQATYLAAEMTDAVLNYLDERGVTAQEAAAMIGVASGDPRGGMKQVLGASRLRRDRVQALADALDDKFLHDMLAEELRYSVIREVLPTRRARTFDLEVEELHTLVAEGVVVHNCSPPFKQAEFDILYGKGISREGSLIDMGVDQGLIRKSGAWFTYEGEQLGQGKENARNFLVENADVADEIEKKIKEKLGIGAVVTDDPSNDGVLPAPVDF

[17] = biological target: DNA (cytosine-5)-methyltransferase 1 (Homo sapiens, UniProt P26358); assay: DNMT1 methyltransferase inhibitors, confirmation, biochemical, fluorescent molecular beacon (AID 602386); type: functional
[18] = biological target: T5, Polyadenylate-binding protein 1 (Homo sapiens, UniProt P11940); assay: PABP1 MLLE–PAM2 binding inhibitor potency, dose response, biochemical, fluorescence polarization, FITC-PAM2 peptide (AID 602259); type: functional; details: read-out: IC50_Mean
[19] = biological target: T5, Polyadenylate-binding protein 1; assay: PABP1 MLLE–PAM2 interaction inhibitors, dose response, miRNA deadenylation inhibitor project, biochemical, fluorescence polarization, Cy5-PAM2 peptide, secondary (AID 602260); type: functional; details: read-out: IC50_Mean
[20] = biological target: T6, Apoptotic protease-activating factor 1 (Homo sapiens, UniProt O14727); assay: SAR analysis of small molecule Activators of Apaf-1 in a Fluorescent assay.; type: functional; details: read-out: EC50_Mean;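 note: caspase-3 cleavage of fluorogenic Rh110 DEVD substrate downstream of apoptosome activation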
T6 sequence (O14727 whole entry): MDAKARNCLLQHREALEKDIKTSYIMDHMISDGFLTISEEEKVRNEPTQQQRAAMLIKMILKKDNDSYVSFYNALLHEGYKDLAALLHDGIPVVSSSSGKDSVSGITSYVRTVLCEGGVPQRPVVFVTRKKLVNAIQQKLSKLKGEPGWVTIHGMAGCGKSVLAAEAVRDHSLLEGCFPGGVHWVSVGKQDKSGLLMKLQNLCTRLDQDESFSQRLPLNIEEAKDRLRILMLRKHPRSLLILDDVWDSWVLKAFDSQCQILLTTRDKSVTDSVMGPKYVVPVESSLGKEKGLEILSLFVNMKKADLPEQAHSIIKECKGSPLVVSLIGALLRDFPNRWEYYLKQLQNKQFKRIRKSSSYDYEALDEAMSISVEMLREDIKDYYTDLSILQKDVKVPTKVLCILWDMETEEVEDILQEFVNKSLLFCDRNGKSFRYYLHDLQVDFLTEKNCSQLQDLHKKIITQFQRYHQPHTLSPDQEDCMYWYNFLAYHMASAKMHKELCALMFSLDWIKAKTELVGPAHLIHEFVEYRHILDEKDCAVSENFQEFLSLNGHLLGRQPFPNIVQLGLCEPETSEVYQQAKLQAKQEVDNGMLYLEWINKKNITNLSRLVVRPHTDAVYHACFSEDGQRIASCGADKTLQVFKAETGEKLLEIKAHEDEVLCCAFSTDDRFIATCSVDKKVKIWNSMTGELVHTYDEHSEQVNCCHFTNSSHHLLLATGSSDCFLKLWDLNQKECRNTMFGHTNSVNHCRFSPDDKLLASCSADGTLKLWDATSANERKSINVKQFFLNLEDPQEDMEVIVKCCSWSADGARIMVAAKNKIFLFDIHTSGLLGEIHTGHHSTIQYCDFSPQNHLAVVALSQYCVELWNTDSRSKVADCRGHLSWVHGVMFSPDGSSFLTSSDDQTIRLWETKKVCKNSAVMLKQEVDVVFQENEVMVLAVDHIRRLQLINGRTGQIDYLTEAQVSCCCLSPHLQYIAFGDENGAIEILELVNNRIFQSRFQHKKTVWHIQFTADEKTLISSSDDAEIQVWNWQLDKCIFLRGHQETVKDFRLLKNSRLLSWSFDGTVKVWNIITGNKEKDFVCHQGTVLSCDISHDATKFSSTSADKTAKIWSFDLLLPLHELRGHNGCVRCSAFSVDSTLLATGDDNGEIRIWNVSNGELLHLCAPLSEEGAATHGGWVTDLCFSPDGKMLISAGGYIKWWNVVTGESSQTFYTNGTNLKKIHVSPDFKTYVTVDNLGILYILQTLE

[21] = ARNT/TACC3 interaction disruptors, potency, confirmation, biochemical, AlphaScreen, cherry-picked samples (AID 651703); type: functional, Homo sapiens;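 note: His-tagged ARNT PAS-B domain paired with GST-TACC3 E629A dimer coactivator fragment; potency of inhibitors that break up the complex and lower AlphaScreen signal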
[22] = biological target: Adenosylmethionine-8-amino-7-oxononanoate aminotransferase (Mycobacterium tuberculosis, UniProt P9WQ81); assay: Mycobacterium tuberculosis BioA enzyme inhibitor Measured in Biochemical System Using Plate Reader - 2163-02_Inhibitor_Dose_CherryPick_Activity.; type: functional, Mycobacterium tuberculosis UT205
[23] = biological target: T7, Diacylglycerol lipase-beta (Mus musculus, UniProt Q91WC9); assay: Late stage assay provider results from the probe development effort to identify inhibitors of diacylglycerol lipase, beta (DAGLb): fluorescence-based dose-response biochemical gel-based competitive Activity-Based Protein Profiling (ABPP) inhibition of DAGLb in vitro.; type: functional
[24] = biological target: T7, Diacylglycerol lipase-beta; assay: Late stage assay provider results from the probe development effort to identify inhibitors of diacylglycerol lipase, beta (DAGLb): LCMS-based biochemical dose response assay.; type: functional

T5 sequence (P11940 whole entry): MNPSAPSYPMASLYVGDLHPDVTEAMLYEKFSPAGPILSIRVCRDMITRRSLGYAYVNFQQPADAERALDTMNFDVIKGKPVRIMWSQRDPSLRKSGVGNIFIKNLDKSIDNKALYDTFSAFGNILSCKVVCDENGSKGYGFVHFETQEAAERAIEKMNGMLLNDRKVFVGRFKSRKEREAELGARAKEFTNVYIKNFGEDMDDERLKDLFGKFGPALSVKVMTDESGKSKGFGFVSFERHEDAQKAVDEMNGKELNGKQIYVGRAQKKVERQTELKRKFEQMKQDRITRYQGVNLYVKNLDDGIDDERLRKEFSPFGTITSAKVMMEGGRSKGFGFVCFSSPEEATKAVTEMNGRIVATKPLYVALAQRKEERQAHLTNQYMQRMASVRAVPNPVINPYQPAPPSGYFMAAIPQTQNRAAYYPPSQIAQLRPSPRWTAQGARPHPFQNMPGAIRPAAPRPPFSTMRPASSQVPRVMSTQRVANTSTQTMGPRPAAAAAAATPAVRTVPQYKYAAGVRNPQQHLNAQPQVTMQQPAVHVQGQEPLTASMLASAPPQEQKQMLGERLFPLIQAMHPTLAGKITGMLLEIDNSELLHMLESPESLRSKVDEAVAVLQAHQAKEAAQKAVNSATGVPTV
T7 sequence (Q91WC9 whole entry): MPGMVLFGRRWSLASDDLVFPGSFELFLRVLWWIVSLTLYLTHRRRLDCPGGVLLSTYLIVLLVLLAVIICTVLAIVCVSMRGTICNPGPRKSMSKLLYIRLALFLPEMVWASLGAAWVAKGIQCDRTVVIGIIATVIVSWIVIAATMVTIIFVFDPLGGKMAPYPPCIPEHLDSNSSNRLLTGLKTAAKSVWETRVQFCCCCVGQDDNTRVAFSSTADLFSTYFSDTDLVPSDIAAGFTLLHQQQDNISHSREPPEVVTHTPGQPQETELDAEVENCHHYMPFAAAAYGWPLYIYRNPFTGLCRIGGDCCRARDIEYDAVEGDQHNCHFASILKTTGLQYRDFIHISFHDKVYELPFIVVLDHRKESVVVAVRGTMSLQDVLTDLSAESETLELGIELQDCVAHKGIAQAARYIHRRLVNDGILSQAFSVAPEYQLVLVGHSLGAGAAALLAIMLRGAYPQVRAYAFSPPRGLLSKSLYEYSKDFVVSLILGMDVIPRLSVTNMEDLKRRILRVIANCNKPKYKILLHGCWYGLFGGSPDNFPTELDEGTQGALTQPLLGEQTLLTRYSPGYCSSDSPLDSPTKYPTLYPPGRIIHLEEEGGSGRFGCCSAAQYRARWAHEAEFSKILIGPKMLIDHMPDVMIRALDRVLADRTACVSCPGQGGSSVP
DNA (cytosine-5)-methyltransferase 1, sequence (P26358 whole entry): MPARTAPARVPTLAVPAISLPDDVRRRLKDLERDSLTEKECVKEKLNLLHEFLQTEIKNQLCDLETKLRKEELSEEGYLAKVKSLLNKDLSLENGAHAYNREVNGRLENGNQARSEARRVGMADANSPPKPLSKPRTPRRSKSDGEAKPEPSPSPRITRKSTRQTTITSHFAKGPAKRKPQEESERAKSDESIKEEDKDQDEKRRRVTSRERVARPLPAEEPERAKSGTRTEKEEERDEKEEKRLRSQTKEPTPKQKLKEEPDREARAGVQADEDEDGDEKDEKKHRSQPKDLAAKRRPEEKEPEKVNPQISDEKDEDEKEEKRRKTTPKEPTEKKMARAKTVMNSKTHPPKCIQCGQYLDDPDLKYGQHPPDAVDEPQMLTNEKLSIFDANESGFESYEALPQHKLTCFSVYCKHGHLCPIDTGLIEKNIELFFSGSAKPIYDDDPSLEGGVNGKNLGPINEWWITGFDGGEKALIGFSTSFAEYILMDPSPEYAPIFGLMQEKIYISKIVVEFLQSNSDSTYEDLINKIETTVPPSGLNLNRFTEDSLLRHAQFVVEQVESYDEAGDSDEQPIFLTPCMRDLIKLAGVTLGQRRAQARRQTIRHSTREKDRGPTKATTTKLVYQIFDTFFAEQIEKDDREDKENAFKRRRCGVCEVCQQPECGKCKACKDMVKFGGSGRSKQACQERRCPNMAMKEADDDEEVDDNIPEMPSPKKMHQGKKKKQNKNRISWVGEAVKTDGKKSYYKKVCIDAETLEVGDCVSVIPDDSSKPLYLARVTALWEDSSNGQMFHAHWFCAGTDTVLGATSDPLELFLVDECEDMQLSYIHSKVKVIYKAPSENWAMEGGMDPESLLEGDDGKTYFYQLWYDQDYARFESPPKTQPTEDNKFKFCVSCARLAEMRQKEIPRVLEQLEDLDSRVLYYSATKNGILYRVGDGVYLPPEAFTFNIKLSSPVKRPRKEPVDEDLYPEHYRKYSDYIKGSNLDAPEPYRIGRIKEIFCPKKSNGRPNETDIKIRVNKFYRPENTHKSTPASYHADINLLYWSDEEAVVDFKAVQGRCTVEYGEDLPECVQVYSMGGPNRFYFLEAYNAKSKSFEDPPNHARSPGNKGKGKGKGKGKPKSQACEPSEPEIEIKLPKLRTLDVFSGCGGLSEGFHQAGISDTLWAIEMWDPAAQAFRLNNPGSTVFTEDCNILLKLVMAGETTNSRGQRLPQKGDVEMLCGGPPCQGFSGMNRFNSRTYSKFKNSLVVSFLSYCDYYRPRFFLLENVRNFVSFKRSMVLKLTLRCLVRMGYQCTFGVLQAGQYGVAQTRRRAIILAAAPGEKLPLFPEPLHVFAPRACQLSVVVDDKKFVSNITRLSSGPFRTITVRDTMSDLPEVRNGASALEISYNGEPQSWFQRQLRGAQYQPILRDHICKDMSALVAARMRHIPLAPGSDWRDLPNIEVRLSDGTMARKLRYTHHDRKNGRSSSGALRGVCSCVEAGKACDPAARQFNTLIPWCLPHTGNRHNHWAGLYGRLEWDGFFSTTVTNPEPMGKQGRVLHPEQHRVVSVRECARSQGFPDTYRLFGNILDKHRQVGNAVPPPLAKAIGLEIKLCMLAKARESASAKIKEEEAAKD
Adenosylmethionine-8-amino-7-oxononanoate aminotransferase, sequence (P9WQ81 whole entry): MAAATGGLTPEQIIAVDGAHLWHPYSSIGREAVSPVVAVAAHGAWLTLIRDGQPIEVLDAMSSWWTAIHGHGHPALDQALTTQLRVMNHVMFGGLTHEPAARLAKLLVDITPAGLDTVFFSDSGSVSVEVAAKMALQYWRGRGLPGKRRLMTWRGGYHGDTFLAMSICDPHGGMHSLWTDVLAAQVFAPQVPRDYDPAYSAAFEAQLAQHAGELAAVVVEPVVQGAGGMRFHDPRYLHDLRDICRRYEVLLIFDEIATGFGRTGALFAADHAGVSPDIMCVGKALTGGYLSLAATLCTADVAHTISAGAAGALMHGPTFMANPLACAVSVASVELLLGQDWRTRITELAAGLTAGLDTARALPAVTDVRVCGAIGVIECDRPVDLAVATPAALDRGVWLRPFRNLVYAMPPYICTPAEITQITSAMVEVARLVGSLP
Beta Lactamase, sequence (Q932Y6 whole entry): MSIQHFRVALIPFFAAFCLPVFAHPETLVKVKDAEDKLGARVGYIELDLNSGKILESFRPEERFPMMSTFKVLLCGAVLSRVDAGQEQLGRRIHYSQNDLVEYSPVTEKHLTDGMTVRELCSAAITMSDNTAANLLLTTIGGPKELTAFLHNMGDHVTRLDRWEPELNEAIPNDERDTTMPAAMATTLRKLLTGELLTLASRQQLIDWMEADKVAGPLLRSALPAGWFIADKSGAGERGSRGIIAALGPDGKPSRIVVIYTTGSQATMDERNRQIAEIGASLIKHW
ATP-binding cassette sub-family B member 6, sequence (Q9NP58 whole entry): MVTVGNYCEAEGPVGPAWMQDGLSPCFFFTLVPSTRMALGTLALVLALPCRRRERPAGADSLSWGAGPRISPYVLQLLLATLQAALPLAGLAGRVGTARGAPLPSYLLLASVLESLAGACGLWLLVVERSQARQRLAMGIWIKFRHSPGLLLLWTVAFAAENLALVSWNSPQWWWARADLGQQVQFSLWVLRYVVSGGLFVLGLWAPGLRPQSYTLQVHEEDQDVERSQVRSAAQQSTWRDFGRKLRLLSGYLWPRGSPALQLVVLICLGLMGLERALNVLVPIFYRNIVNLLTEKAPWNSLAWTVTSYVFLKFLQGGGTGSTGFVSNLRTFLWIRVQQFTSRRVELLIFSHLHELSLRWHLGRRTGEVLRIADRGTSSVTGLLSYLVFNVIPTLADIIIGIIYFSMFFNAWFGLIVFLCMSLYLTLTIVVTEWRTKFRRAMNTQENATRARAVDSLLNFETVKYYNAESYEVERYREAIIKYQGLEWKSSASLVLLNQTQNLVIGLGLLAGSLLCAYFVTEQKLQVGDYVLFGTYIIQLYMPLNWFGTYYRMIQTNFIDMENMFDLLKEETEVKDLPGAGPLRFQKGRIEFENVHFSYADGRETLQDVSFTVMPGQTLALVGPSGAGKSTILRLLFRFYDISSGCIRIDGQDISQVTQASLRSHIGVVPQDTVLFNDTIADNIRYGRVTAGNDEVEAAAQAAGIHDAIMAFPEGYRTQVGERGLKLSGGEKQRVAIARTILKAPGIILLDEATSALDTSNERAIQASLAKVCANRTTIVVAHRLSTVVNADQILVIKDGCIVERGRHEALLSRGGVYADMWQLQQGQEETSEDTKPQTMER

With `O=C(CC1SCCNC1=O)Nc1cc(Cl)cc(Cl)c1` (centres undefined) the IC50 [1] was 26.4 µM (inactive).

With `CC1=C(C(=O)OCc2ccc3c(c2)OCO3)C(c2ccc(O)c([N+](=O)[O-])c2)NC(=O)N1` (centres undefined) the IC50 [2] was 63.7 µM (inactive) and the IC50 [3] was 39.8 µM (inactive).

For `COC(=O)c1ccc(NC(=O)c2nc(S(=O)(=O)Cc3cccc(C)c3)ncc2Cl)cc1`, the AC50 [4] was 33.5 µM (active), the IC50 [5] was 2.53 µM (active) and the AC50 [6] was 7.28 µM (active). The AC50 [7] was 1.35 µM (active), the EC50 [8] was 0.941 µM (active) and the AC50 [9] was 0.389 µM (active). The IC50 [10] was 10.7 µM (inactive), the AC50 [11] was 1.26 µM (active) and the EC50 [12] was > 150 µM (not active). The AC50 [13] was 5.82 µM (active), the EC50 [14] was 44.2 µM (active) and the EC50 [15] was 3.07 µM (active). For the same molecule, the EC50 [16] was 0.228 µM (active).

With `O=C1c2sccc2-c2cccc3cccc1c23` the IC50 [17] was 1.02 µM (active), the IC50 [18] was 25.5 µM (inactive) and the IC50 [19] was > 66 µM (inactive).

For `O=C(O)CC(CCc1ccccc1)NC(=O)c1cccs1` (centres undefined), the EC50 [20] was > 100 µM (inactive).

In the case of `COC(=O)C(CC#Cc1ccc2c(c1)[C@]1(C(=O)N2)[C@H](c2ccc(OCCO)cc2)N2[C@H](c3ccccc3)[C@H](c3ccccc3)OC(=O)[C@H]2[C@@H]1C(=O)N1CCCCCCC1)C(=O)OC`, the AC50 [21] was 126 µM (active).

With `O=C(N[C@H]1CC[C@@H](CCn2cc(-c3cccnc3)nn2)O[C@H]1CO)c1ccccc1F` the AC50 [22] was 12.3 µM (active).

In the case of `O=C(N1CCCCC1Cc1ccccc1)n1cc(-c2ccc(-c3ccccc3)cc2)nn1` (centres undefined), the IC50 [23] was 0.043 µM (active) and the IC50 [24] was 0.1 µM (active).
